Key:
[1] = test system: TNFα release from LPS-induced RAW 264.7 cells; assay: Inhibition of LPS-induced TNFα release from RAW 264.7 cells (ELISA); assay type: cell-based; details: RAW 264.7 murine macrophage cells, 1 hour pretreatment, 100 ng/mL LPS, 24 hours
Description: (§1) The present inventors measured the ability of eight test articles to inhibit LPS-induced nitric oxide and TNFα secretion from murine macrophage cells.
(§2) The studies were conducted in RAW 264.7 cultures.
(§3) RAW 264.7 murine macrophage cells (ATCC, TIB-71) were maintained at 5% CO2, 37° C. in RPMI media (Fisher 15-040-CV, 1 mg/L glutathione) with 10% fetal bovine serum (fbs, Fisher, lot 05069F) plus 2 mM L-glutamine and penicillin/streptomycin. The cells were subcultured every two to three days. Cells were plated in tissue culture treated 96 well plates at a density of 1×10^5 cells/well and incubated at 5% CO2, 37° C. for at least one hour prior to initiation of the assay. The cells were washed with RPMI with 10% fbs prior to the initiation of the assay.
The compounds were weighed, dissolved in DMSO for stock solutions of 10 mg/mL and serially diluted in RPMI. The plated RAW 264.7 cells were pretreated in duplicate with the test compounds, control (CNI-1493) or vehicle for 1 hour at final concentrations of 0, 0.1, 1.0, 10, and 100 μg/mL. The cells were stimulated with 100 ng/mL LPS (E. coli 0111:B4) and incubated at 5% CO2, 37° C. for 24 hours. The media was collected and stored at −20° C.

[2] = test system: nitric oxide release from LPS-induced RAW 264.7 cells; assay: Inhibition of LPS-induced nitric oxide (nitrite) release from RAW 264.7 cells (Griess reagent); assay type: cell-based; details: RAW 264.7 murine macrophage cells, 1 hour pretreatment, 100 ng/mL LPS, 24 hours
Description: as §1, §2, §3
The compounds were weighed, dissolved in DMSO for stock solutions of 10 mg/mL and serially diluted in RPMI. The plated RAW 264.7 cells were pretreated in duplicate with the test compounds, control (CNI-1493) or vehicle for 1 hour at final concentrations of 0, 0.1, 1.0, 10, and 100 μg/mL. […]
To 50 μL of cell-free media, 50 μL of Griess Reagent (1 part 0.1% naphthylethylenediamine diHCl, 1 part 1.32% sulfanilimide in 60% acetic acid) was added and incubated for no more than 5 minutes at ambient temperature. The samples were read on a microtiter plate reader at 540 nm and compared to a 0.1-5 nmol nitrite standard curve.

C/C(=N\N=C(N)N)c1cc(NC(=O)CCCCCCCCC(=O)Nc2cc(/C(C)=N/N=C(N)N)cc(/C(C)=N/N=C(N)N)c2)cc(/C(C)=N/N=C(N)N)c1.Cl.Cl.Cl.Cl [CNI-1493]
IC50 for inhibition of release of TNFα [1]: approximately 8 μg/mL | IC50 for inhibition of nitric oxide release [2]: approximately 5.5 μg/mL

— patent publication US7863334B2, “Guanylhydrazone compounds, compositions, methods of making and using” (Cytokine PharmaSciences, Inc., priority 2004, dated 2011)
